Test results published in the NIST ThermoML archive (doi:10.1021/je100042c).
± gives the expanded uncertainty stated by the source.

Details: 101.33 kPa, Liquid; for viscosity: Concentric cylinders viscometry; for mass density: Vibrating tube method

`CCCCCCCCCCCCCCCCCC(=O)OC` [methyl octadecanoate] gave a viscosity (313.15 K) of 4.986 ± 0.047 mPa·s, a mass density (313.15 K) of 849.8 ± 1 kg/m3 and a viscosity (318.15 K) of 4.435 ± 0.042 mPa·s. It also gave a mass density (318.15 K) of 846.1 ± 1 kg/m3, a viscosity (323.15 K) of 3.965 ± 0.037 mPa·s and a mass density (323.15 K) of 842.5 ± 1 kg/m3. For the same compound, the viscosity (328.15 K) was 3.568 ± 0.034 mPa·s, the mass density (328.15 K) was 838.9 ± 1 kg/m3 and the viscosity (333.15 K) was 3.225 ± 0.031 mPa·s. It also gave a mass density (333.15 K) of 835.3 ± 1 kg/m3, a viscosity (338.15 K) of 2.929 ± 0.028 mPa·s and a mass density (338.15 K) of 831.7 ± 1 kg/m3. For the same compound, the viscosity (343.15 K) was 2.672 ± 0.026 mPa·s, the mass density (343.15 K) was 828.1 ± 1 kg/m3 and the viscosity (348.15 K) was 2.448 ± 0.024 mPa·s. For the same compound, the mass density (348.15 K) was 824.5 ± 1 kg/m3, the viscosity (353.15 K) was 2.25 ± 0.022 mPa·s and the mass density (353.15 K) was 820.9 ± 1 kg/m3. It also gave a viscosity (358.15 K) of 2.076 ± 0.02 mPa·s, a mass density (358.15 K) of 817.3 ± 1 kg/m3 and a viscosity (363.15 K) of 1.922 ± 0.019 mPa·s. For the same compound, the mass density (363.15 K) was 813.7 ± 1 kg/m3.

For `CCCCCCCC(=O)OC` [methyl octanoate], the viscosity (283.15 K) was 1.71 ± 0.017 mPa·s, the mass density (283.15 K) was 885.9 ± 1 kg/m3 and the viscosity (288.15 K) was 1.559 ± 0.016 mPa·s. The mass density (288.15 K) was 881.5 ± 1 kg/m3, the viscosity (293.15 K) was 1.427 ± 0.015 mPa·s and the mass density (293.15 K) was 877.1 ± 1 kg/m3. It also gave a viscosity (298.15 K) of 1.313 ± 0.013 mPa·s, a mass density (298.15 K) of 872.8 ± 1 kg/m3 and a viscosity (303.15 K) of 1.212 ± 0.013 mPa·s. The mass density (303.15 K) was 868.4 ± 1 kg/m3, the viscosity (308.15 K) was 1.123 ± 0.012 mPa·s and the mass density (308.15 K) was 864 ± 1 kg/m3. For the same compound, the viscosity (313.15 K) was 1.044 ± 0.011 mPa·s, the mass density (313.15 K) was 859.6 ± 1 kg/m3 and the viscosity (318.15 K) was 0.9733 ± 0.01 mPa·s. The mass density (318.15 K) was 855.2 ± 1 kg/m3, the viscosity (323.15 K) was 0.9093 ± 0.0099 mPa·s and the mass density (323.15 K) was 850.8 ± 1 kg/m3. For the same compound, the viscosity (328.15 K) was 0.8518 ± 0.0095 mPa·s, the mass density (328.15 K) was 846.4 ± 1 kg/m3 and the viscosity (333.15 K) was 0.7998 ± 0.009 mPa·s. The mass density (333.15 K) was 841.9 ± 1 kg/m3, the viscosity (338.15 K) was 0.7528 ± 0.0086 mPa·s and the mass density (338.15 K) was 837.5 ± 1 kg/m3. The viscosity (343.15 K) was 0.7101 ± 0.0083 mPa·s, the mass density (343.15 K) was 833 ± 1 kg/m3 and the viscosity (348.15 K) was 0.6713 ± 0.0079 mPa·s. For the same compound, the mass density (348.15 K) was 828.5 ± 1 kg/m3, the viscosity (353.15 K) was 0.6359 ± 0.0076 mPa·s and the mass density (353.15 K) was 824 ± 1 kg/m3.

For `CCCCCCCCCCCCCC(=O)OC` [methyl tetradecanoate], the viscosity (298.15 K) was 3.982 ± 0.051 mPa·s, the mass density (298.15 K) was 863.7 ± 1.2 kg/m3 and the viscosity (303.15 K) was 3.543 ± 0.045 mPa·s. The mass density (303.15 K) was 859.9 ± 1.2 kg/m3, the viscosity (308.15 K) was 3.165 ± 0.041 mPa·s and the mass density (308.15 K) was 856 ± 1.2 kg/m3. The viscosity (313.15 K) was 2.845 ± 0.037 mPa·s, the mass density (313.15 K) was 852.2 ± 1.2 kg/m3 and the viscosity (318.15 K) was 2.571 ± 0.033 mPa·s. For the same compound, the mass density (318.15 K) was 848.4 ± 1.2 kg/m3, the viscosity (323.15 K) was 2.334 ± 0.03 mPa·s and the mass density (323.15 K) was 844.6 ± 1.2 kg/m3. The viscosity (328.15 K) was 2.129 ± 0.028 mPa·s, the mass density (328.15 K) was 840.8 ± 1.2 kg/m3 and the viscosity (333.15 K) was 1.95 ± 0.025 mPa·s. For the same compound, the mass density (333.15 K) was 837 ± 1.2 kg/m3, the viscosity (338.15 K) was 1.793 ± 0.024 mPa·s and the mass density (338.15 K) was 833.1 ± 1.2 kg/m3. For the same compound, the viscosity (343.15 K) was 1.655 ± 0.022 mPa·s, the mass density (343.15 K) was 829.3 ± 1.2 kg/m3 and the viscosity (348.15 K) was 1.532 ± 0.02 mPa·s. The mass density (348.15 K) was 825.5 ± 1.2 kg/m3, the viscosity (353.15 K) was 1.423 ± 0.019 mPa·s and the mass density (353.15 K) was 821.8 ± 1.2 kg/m3.
